Test results published in patent US9260439B2, “Dihydropyrrolopyrimidine derivatives” (PFIZER INC., priority 2014, dated 2016).
Counter-ions that a name gives are not always drawn.

Target: truncated PI3Kα (p110α/iSH2 p85α) (Homo sapiens (Human), UniProt P42336)
Test: PI3KA_Act fluorescence polarization kinase assay (Ki)
Assay type: biochemical
Details: 1 mM ATP
How it was run: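 p110α/iSH2 p85α (0.5 nM) was reacted with 30 μM sonicated PIP2 in 50 mM HEPES pH 7.4, 150 mM NaCl, 5 mM MgCl2, 1 mM DTT and 0.05% CHAPS for 30 min at room temperature, then stopped with EDTA. PIP3 was detected by fluorescence polarization (GST-Grp1 PH domain/TAMRA-PIP3), and Ki came from a Morrison tight-binding fit.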

truncated PI3Kα (p110α/iSH2 p85α), sequence (P42336 whole entry, the tested form may be a part): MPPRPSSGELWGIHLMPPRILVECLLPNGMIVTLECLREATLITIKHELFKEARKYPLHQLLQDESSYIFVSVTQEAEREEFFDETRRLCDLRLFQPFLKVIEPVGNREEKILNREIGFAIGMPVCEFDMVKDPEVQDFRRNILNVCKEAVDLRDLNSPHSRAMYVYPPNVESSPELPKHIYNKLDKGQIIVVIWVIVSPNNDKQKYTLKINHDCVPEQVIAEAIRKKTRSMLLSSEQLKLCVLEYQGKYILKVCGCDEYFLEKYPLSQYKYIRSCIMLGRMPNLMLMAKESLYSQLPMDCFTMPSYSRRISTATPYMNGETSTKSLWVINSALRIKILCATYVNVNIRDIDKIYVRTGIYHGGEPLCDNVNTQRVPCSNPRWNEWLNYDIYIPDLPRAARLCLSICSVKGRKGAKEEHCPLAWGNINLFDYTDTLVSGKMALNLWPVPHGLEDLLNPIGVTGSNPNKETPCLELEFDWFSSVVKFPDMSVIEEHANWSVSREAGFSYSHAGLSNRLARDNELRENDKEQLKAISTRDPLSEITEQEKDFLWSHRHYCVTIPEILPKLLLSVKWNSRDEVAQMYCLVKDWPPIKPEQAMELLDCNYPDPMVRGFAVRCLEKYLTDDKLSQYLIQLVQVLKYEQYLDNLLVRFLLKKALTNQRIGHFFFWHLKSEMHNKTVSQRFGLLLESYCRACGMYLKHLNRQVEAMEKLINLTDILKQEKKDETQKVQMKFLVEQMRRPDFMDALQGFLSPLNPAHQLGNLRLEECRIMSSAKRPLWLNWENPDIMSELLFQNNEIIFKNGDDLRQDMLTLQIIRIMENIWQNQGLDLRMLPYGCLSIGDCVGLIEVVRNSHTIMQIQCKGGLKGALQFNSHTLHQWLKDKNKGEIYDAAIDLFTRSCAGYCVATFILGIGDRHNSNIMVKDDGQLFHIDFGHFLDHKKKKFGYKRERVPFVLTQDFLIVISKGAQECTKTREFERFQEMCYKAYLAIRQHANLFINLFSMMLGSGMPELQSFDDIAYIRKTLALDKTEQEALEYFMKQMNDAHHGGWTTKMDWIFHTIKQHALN

Row | Compound | PI3KA_Act Ki [pM]
1 | CC[C@@]1(N2CCc3c(-c4cnc(N)nc4)nc(N4CCOCC4)nc32)CCNC1.Cl [Example 256, 5-{7-[(3R)-3-ethylpyrrolidin-3-yl]-2-(morpholin-4-yl)-6,7-dihydro-5H-pyrrolo[2,3-d]pyrimidin-4-yl}pyrimidin-2-amine hydrochloride] | 1131
2 | C[C@]1(N2CCc3c(-c4cnc(N)nc4)nc(N4CCOCC4)nc32)CCN(C(=O)C2CCN2)C1.Cl (stereo partly drawn) [Example 348, {(3S)-3-[4-(2-aminopyrimidin-5-yl)-2-(morpholin-4-yl)-5,6-dihydro-7H-pyrrolo[2,3-d]pyrimidin-7-yl]-3-methylpyrrolidin-1-yl}(azetidin-2-yl)methanone hydrochloride] | 66
3 | Cl.Nc1ncc(-c2nc(N3CCOCC3)nc3c2CCN3[C@@H]2CNC[C@@H]2F)cn1 [Example 254, 5-{7-[(3R,4S)-4-fluoropyrrolidin-3-yl]-2-(morpholin-4-yl)-6,7-dihydro-5H-pyrrolo[2,3-d]pyrimidin-4-yl}pyrimidin-2-amine hydrochloride] | 1893
4 | CCC(=O)NCC(=O)N1CC(N2CCc3c(-c4cnc(N)nc4)nc(N4CCOCC4)nc32)C1 [Example 244, N-(2-{3-[4-(2-aminopyrimidin-5-yl)-2-(morpholin-4-yl)-5,6-dihydro-7H-pyrrolo[2,3-d]pyrimidin-7-yl]azetidin-1-yl}-2-oxoethyl)propanamide] | 598
5 | C[C@H]1COCCN1c1nc(-c2cnc(N)nc2)c2c(n1)N(C1CN(S(=O)(=O)CC3CC3)C1)CC2 [Example 159] | 97
6 | CC(C)(C)OC(=O)N1CCCC(C)(N2CCc3c(-c4cnc(N)nc4)nc(N4CCOCC4)nc32)C1 (racemic) [Example 434, tert-butyl 3-[4-(2-aminopyrimidin-5-yl)-2-(morpholin-4-yl)-5,6-dihydro-7H-pyrrolo[2,3-d]pyrimidin-7-yl]-3-methylpiperidine-1-carboxylate] | 220
7 | C[C@H](O)C(=O)N1CC[C@](C)(N2CCc3c(-c4cnc(N)nc4)nc(N4CCOCC4)nc32)C1 [Example 268, (2S)-1-{(3S)-3-[4-(2-aminopyrimidin-5-yl)-2-(morpholin-4-yl)-5,6-dihydro-7H-pyrrolo[2,3-d]pyrimidin-7-yl]-3-methylpyrrolidin-1-yl}-2-hydroxypropan-1-one] | 100
8 | CS(=O)(=O)N1CC2CC2(N2CCc3c(-c4cnc(N)nc4)nc(N4CCOCC4)nc32)C1 (racemic) [Example 435, 5-{7-[3-(methylsulfonyl)-3-azabicyclo[3.1.0]hex-1-yl]-2-(morpholin-4-yl)-6,7-dihydro-5H-pyrrolo[2,3-d]pyrimidin-4-yl}pyrimidin-2-amine] | 132
9 | C[C@H]1COCCN1c1nc(-c2cnc(N)nc2)c2c(n1)N([C@@]1(C)CCN(C3CCNC3=O)C1)CC2 (single isomer, unassigned) [Example 515] | <81
10 | CNS(=O)(=O)N1CCC(C)(N2CCc3c(-c4cnc(N)nc4)nc(N4CCOCC4)nc32)C1 (racemic) [Example 162] | <18
11 | Nc1ncc(-c2nc(N3CCOCC3)nc3c2CCN3C2CN(S(=O)(=O)N3CCC3)C2)cn1 [Example 252, 5-{7-[1-(azetidin-1-ylsulfonyl)azetidin-3-yl]-2-(morpholin-4-yl)-6,7-dihydro-5H-pyrrolo[2,3-d]pyrimidin-4-yl}pyrimidin-2-amine] | 158
12 | C[C@]1(N2CCc3c(-c4cnc(N)nc4)nc(N4CCOCC4)nc32)CCN(C(=O)[C@H]2CCOC2)C1 [Example 373, {(3S)-3-[4-(2-aminopyrimidin-5-yl)-2-(morpholin-4-yl)-5,6-dihydro-7H-pyrrolo[2,3-d]pyrimidin-7-yl]-3-methylpyrrolidin-1-yl}[(3S)-tetrahydrofuran-3-yl]methanone] | 28
13 | C[C@]1(N2CCc3c(-c4cnc(N)nc4)nc(N4CCOCC4)nc32)CCN(C(=O)[C@H]2C[C@H]2F)C1 [Example 335, {(3S)-3-[4-(2-aminopyrimidin-5-yl)-2-(morpholin-4-yl)-5,6-dihydro-7H-pyrrolo[2,3-d]pyrimidin-7-yl]-3-methylpyrrolidin-1-yl}[(1R,2R)-2-fluorocyclopropyl] methanone] | <18
14 | C[C@]1(N2CCc3c(-c4cnc(N)nc4)nc(N4CCOCC4)nc32)CCN(C(=O)c2cc[nH]n2)C1 [Example 389, {(3S)-3-[4-(2-aminopyrimidin-5-yl)-2-(morpholin-4-yl)-5,6-dihydro-7H-pyrrolo[2,3-d]pyrimidin-7-yl]-3-methylpyrrolidin-1-yl}(1H-pyrazol-3-yl)methanone] | <18
15 | C[C@@]1(N2CCc3c(-c4cnc(N)nc4)nc(N4CCOCC4)nc32)CCNC1 [Example 215] | 476
16 | C[C@H]1COCCN1c1nc(-c2cnc(N)nc2)c2c(n1)N(C1(C)CN(S(=O)(=O)C3CC3)C1)CC2 [Example 205] | 21

Row | Compound | PI3KA_Act Ki [pM]
17 | C[C@@H]1CN(C(=O)OC(C)(C)C)C[C@@]1(C)N1CCc2c(-c3cnc(N)nc3)nc(N3CCOC[C@@H]3C)nc21 [Example 510, tert-butyl (3S,4R)-3-{4-(2-aminopyrimidin-5-yl)-2-[(3S)-3-methylmorpholin-4-yl]-5,6-dihydro-7H-pyrrolo[2,3-d]pyrimidin-7-yl}-3,4-dimethylpyrrolidine-1-carboxylate] | <18
18 | CNS(=O)(=O)NCCOC(=O)N1CC(N2CCc3c(-c4cnc(N)nc4)nc(N4CCOCC4)nc32)C1 [Example 148] | 94
19 | C[C@@H](O)COC(=O)N1CC(N2CCc3c(-c4cnc(N)nc4)nc(N4CCOC[C@@H]4C)nc32)C1 [Example 186] | 274
20 | C[C@@]1(N2CCc3c(-c4cnc(N)nc4)nc(N4CCOCC4)nc32)CCN(CC(N)=O)C1 [Example 398, 2-{(3R)-3-[4-(2-aminopyrimidin-5-yl)-2-(morpholin-4-yl)-5,6-dihydro-7H-pyrrolo[2,3-d]pyrimidin-7-yl]-3-methylpyrrolidin-1-yl}acetamide] | 411
21 | CC(C)(C)C(=O)N1CC[C@](C)(N2CCc3c(-c4cnc(N)nc4)nc(N4CCOCC4)nc32)C1 [Example 264, 1-{(3S)-3-[4-(2-aminopyrimidin-5-yl)-2-(morpholin-4-yl)-5,6-dihydro-7H-pyrrolo[2,3-d]pyrimidin-7-yl]-3-methylpyrrolidin-1-yl}-2,2-dimethylpropan-1-one] | <18
22 | COCC(C)(C)N1CCc2c(-c3cnc(N)nc3)nc(N3CCOCC3)nc21 [Example 188] | 642
23 | CC(C)(C)OC(=O)N1CCC1C(=O)N1CC[C@](C)(N2CCc3c(-c4cnc(N)nc4)nc(N4CCOCC4)nc32)C1 (stereo partly drawn) [Example 358, tert-butyl 2-({(3S)-3-[4-(2-aminopyrimidin-5-yl)-2-(morpholin-4-yl)-5,6-dihydro-7H-pyrrolo[2,3-d]pyrimidin-7-yl]-3-methylpyrrolidin-1-yl}carbonyl)azetidine-1-carboxylate] | 171
24 | CC(C)(CNS(C)(=O)=O)N1CCc2c(-c3cnc(N)nc3)nc(N3CCOCC3)nc21 [Example 191] | 881
25 | CC(C)(N)C(=O)N1CC[C@](C)(N2CCc3c(-c4cnc(N)nc4)nc(N4CCOCC4)nc32)C1 [Example 4, 2-amino-1-{(3S)-3-[4-(2-aminopyrimidin-5-yl)-2-(morpholin-4-yl)-5,6-dihydro-7H-pyrrolo[2,3-d]pyrimidin-7-yl]-3-methylpyrrolidin-1-yl}-2-methylpropan-1-one] | 23
26 | CC1(C(=O)N2CC[C@](C)(N3CCc4c(-c5cnc(N)nc5)nc(N5CCOCC5)nc43)C2)CCCO1 (single isomer, unassigned) [Example 376] | 90
27 | CN1CCC1(C)C(=O)N1CC[C@](C)(N2CCc3c(-c4cnc(N)nc4)nc(N4CCOCC4)nc32)C1 (stereo partly drawn) [Example 355, {(3S)-3-[4-(2-aminopyrimidin-5-yl)-2-(morpholin-4-yl)-5,6-dihydro-7H-pyrrolo[2,3-d]pyrimidin-7-yl]-3-methylpyrrolidin-1-yl}(1,2-dimethylazetidin-2-yl)methanone] | 102
28 | C[C@]1(N2CCc3c(-c4cnc(N)nc4)nc(N4CCOCC4)nc32)CCN(C(=O)C2CCC2)C1 [Example 341, {(3S)-3-[4-(2-aminopyrimidin-5-yl)-2-(morpholin-4-yl)-5,6-dihydro-7H-pyrrolo[2,3-d]pyrimidin-7-yl]-3-methylpyrrolidin-1-yl}(cyclobutyl)meth-anone] | <18
29 | C[C@H]1COCCN1c1nc(-c2cnc(N)nc2)c2c(n1)N([C@@]1(C)CNC[C@@H]1C)CC2.Cl [Example 468, 5-{7-[(3R,4S)-3,4-dimethylpyrrolidin-3-yl]-2-[(3S)-3-methylmorpholin-4-yl]-6,7-dihydro-5H-pyrrolo[2,3-d]pyrimidin-4-yl}pyrimidin-2-amine hydrochloride] | 634
30 | CNS(=O)(=O)N1CC[C@@](C)(N2CCc3c(-c4cnc(N)nc4)nc(N4CCOCC4)nc32)C1 [Example 172] | 29
31 | C[C@H]1COCCN1c1nc(-c2cnc(N)nc2)c2c(n1)N(C1(C)CN(S(C)(=O)=O)C1)CC2 [Example 206] | 31

Same assay, conditions: 1 mM ATP, hydrochloride

Row | Compound | PI3KA_Act Ki [pM]
32 | CC1(N2CCc3c(-c4cnc(N)nc4)nc(N4CCOCC4)nc32)CCCNC1 (single isomer, unassigned) [Example 431, 5-[7-(3-methylpiperidin-3-yl)-2-(morpholin-4-yl)-6,7-dihydro-5H-pyrrolo[2,3-d]pyrimidin-4-yl]pyrimidin-2-amine hydrochloride] | 14544
